Calls of active or inactive are those of the source. The rule behind the calls is not given here.

The values below come from ChEMBL document CHEMBL1121675, “Syntheses of 9-acridine- and 2-phenanthridinemethanols as potential antimalarials” (1981).

In experiment [1] the test system is Plasmodium berghei. Put plainly: Percent inhibition of adenosine uptake by Plasmodium berghei. Format: functional.
In experiment [2] the test system is Plasmodium berghei. The experiment is described as follows: Percent inhibition of hypoxanthine uptake by Plasmodium berghei. Format: functional.
Experiment [3] concerns Mus musculus. Put plainly: Decrease in life span of mice treated with compound dose of 160 mg/kg. Format: functional.
In experiment [4] the test system is Salmonella typhimurium. The experiment is described as follows: Mutagenic response at 1000 nmol/plate or lower for strain TA 100 of Salmonella Typhimurium; Not significant. Type of experiment: functional, organism-based. The settings on record: Salmonella enterica subsp. enterica serovar Typhimurium.
Experiment [5] relates to Salmonella typhimurium. Put plainly: Mutagenic response at 1000 nmol/plate or lower for strain TA 98 of Salmonella Typhimurium; Not significant. Type of experiment: functional, organism-based. The following applies: Salmonella enterica subsp. enterica serovar Typhimurium.
In experiment [6] the test system is Mus musculus. Put plainly: Decrease in life span of mice treated with compound dose of 320 mg/kg. Type of experiment: functional.

For `CCN(CC)CCCC(C)Nc1c2ccc(Cl)cc2nc2ccc(OC)cc12` (stereo not drawn) [QUINACRINE], the Inhibition (usually the change of the read-out against control, counted positive when it falls) in experiment [1] is 80%; in experiment [2], 92%.
For `OC(CN1CCCCC1)c1c2ccccc2nc2ccccc12` (stereo not drawn), the figures for the Inhibition in experiment [1] and in experiment [2] were 31% and 50%, respectively.
With `CCCCN(CCCC)CCC(O)c1c2ccccc2nc2ccccc12` (stereo not drawn), the “Decrease in life span” value in experiment [3] was 0.4 days.
`c1ccc2c(C3CO3)c3ccccc3nc2c1` (stereo not drawn): the Mutagenicity result in experiment [4] and in experiment [5] was “inactive” throughout.
In the case of `CCCCN(CCCC)CC(O)c1ccc2ncc3ccccc3c2c1` (stereo not drawn), the “Decrease in life span” value in experiment [6] is 0.1 days.
